IC50 and inhibition data for two molecules are collected here from US9174951B2, “Glucose transporter inhibitors” (The Ohio State University Research Foundation, priority 2012, dated 2015).

Structures are written as SMILES.

One assay addresses T1, GLUT1 (Homo sapiens, UniProt P11166).
T1 construct: The full length GLUT1, GLUT4, and GLUT9 ORF cDNA clones were purchased from Addgene; EGFP (from the pEGFP-N2 vector); host or cells: LNCaP
T1 sequence (P11166 1-492): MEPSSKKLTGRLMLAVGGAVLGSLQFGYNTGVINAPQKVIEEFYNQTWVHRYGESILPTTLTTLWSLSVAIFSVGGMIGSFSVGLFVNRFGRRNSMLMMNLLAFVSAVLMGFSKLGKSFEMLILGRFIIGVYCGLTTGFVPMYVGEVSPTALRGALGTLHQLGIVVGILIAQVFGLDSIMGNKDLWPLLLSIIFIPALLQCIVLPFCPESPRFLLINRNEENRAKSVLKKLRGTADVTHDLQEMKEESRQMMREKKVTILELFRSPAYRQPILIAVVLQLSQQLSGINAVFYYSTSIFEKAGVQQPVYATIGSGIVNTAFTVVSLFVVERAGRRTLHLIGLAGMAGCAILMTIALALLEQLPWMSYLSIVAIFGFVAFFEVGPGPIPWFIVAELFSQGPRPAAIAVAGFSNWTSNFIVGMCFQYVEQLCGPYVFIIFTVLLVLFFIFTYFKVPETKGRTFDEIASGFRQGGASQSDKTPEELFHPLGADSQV
Put plainly: [3H]2-DG uptake into LNCaP cells overexpressing GLUT1. In kind it is cell-based. The following applies: for IC50: LNCaP cells overexpressing GLUT1, read-out: IC50 in inhibiting GLUT1-mediated [3H]2-DG uptake; for inhibition at 5 µM: LNCaP cells transfected with GLUT1, 30 min. An excerpt: (§1) As information regarding the expression pattern of individual GLUT members in LNCaP cells was lacking, quantitative real time polymerase chain reaction (qRT-PCR) was used to assess the mRNA levels of the hypoxia-responsive GLUT1 and GLUT3, and three other representative GLUT members, including the class I GLUT2 and GLUT4 and the class II GLUT9. Among these five members, LNCaP cells expressed GLUT1 and, to a much lesser extent, GLUT9, while the mRNA levels of GLUTs2-4 were negligible (FIG. 3B). To examine the isoform specificity of these inhibitors, LNCaP cells were ectopically transfected with plasmids encoding GLUT1, GLUT3, GLUT4, or GLUT9 vis-à-vis the pCMV control vector so that the increased glucose uptake in GLUT-transfected cells relative to pCMV control cells was indicative of the activity of the ectopically expressed GLUT protein.
(§2) Glucose Uptake Assay. LNCaP cells were seeded in six-well plates (3×10^5 cells/well) for 24 h. Cells were washed twice with Krebs-Ringer phosphate buffer (126 mM NaCl, 2.5 mM KCl, 25 mM NaHCO3, 1.2 mM NaH2PO4, 1.2 mM MgCl2, 2.5 mM CaCl2, pH 7.4) and were then treated with individual agents in Krebs-Ringer phosphate buffer. After 1.5 h, glucose uptake was initiated by adding 1 mL Krebs-Ringer buffer containing […] [^3H]2-DG (PerkinElmer Life Science) and […] non-radioactive 2-DG and was terminated by washing with cold PBS. The cells were lysed in […] lysis buffer (10 mM Tris-HCl pH 8.0, 0.1% SDS) and aliquots were taken for measurement of radioactivity using a scintillation counter (Beckman LS6500).
Plasmid Construction, Transient Transfection and Immunoblotting. The full length GLUT1, GLUT4, and GLUT9 ORF cDNA clones were purchased from Addgene (Cambridge, Mass.) and GLUT3 ORF cDNA was purchased from Origene Technologies (Rockville, Md.). GLUT1, GLUT3, and GLUT9 were subcloned into the HindIII/SalI sites and GLUT4 was subcloned into the EcoRI/SalI sites of pEGFP-N2 expression vector (Clontech, Palo Alto, Calif.). Transfections were performed by electroporation using Nucleofector kit R of the Amaxa Nucleofector system (Lonza, Walkersville, Md.) according to the manufacturer's protocol. Immunoblotting was performed using cells lysates harvested with SDS lysis buffer (1% SDS, 50 mM Tris-HCl pH 8.0, 10 mM EDTA) containing 1× protease inhibitor cocktail (Sigma) and phosphatase inhibitor and were electrophoresed in 8˜12% SDS polyacrylamide gels and then transferred onto nitrocellulose membranes. After blotting in 5% nonfat dry milk, the membranes were incubated with primary antibodies at 1:1,000 dilution in TBS-Tween 20 overnight at 4° C., and then secondary antibodies conjugated with horseradish peroxidase at 1:5,000 dilution in TBS-Tween 20 for 1 hour at room temperature. […]

In the next assay the target is T2, GLUT3 (Homo sapiens, UniProt P11169).
T2 construct: GLUT3 ORF cDNA was purchased from Origene Technologies; EGFP (from the pEGFP-N2 vector); host or cells: LNCaP
T2 sequence (P11169 1-496): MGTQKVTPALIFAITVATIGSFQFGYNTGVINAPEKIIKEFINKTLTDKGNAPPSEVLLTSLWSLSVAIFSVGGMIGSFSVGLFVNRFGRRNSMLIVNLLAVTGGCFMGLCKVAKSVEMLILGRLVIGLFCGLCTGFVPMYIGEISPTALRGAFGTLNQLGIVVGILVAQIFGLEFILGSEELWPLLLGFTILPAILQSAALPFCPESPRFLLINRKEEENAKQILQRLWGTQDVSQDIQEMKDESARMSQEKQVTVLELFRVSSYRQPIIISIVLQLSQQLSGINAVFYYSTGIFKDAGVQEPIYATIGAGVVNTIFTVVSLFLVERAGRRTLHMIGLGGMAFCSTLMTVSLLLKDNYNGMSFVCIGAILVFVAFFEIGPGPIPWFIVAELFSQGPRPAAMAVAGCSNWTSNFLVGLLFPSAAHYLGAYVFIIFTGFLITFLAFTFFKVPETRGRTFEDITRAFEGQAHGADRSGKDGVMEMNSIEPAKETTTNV
In words: [3H]2-DG uptake into LNCaP cells overexpressing GLUT3. The assay is classed as cell-based. The conditions noted are these: for inhibition at 5 µM: LNCaP cells transfected with GLUT3, 30 min.
Source text: as §1, §2
Plasmid Construction, Transient Transfection and Immunoblotting. The full length GLUT1, GLUT4, and GLUT9 ORF cDNA clones were purchased from Addgene (Cambridge, Mass.) and GLUT3 ORF cDNA was purchased from Origene Technologies (Rockville, Md.). GLUT1, GLUT3, and GLUT9 were subcloned into the HindIII/SalI sites and GLUT4 was subcloned into the EcoRI/SalI sites of pEGFP-N2 expression vector (Clontech, Palo Alto, Calif.). […]

What is called IC50 is the concentration that inhibits the measured activity by half. Broadly, the inhibition is the drop in the measured response relative to a control, in per cent. Higher therefore signals a strong effect. `CCC(CC)CN1C(=O)S/C(=C\c2ccc(O)c(C(F)(F)F)c2)C1=O` [Compound 5]: on GLUT1, the IC50 was 5 µM and 5 µM produced 53% inhibition. This molecule also returned an inhibition at 5 µM against GLUT3 of 41%.

With `CC(CN1C(=O)S/C(=C\c2ccc(O)c(C(F)(F)F)c2)C1=O)(CC(F)(F)F)CC(F)(F)F` [Compound 30, 5-(4-Hydroxy-3-trifluoromethyl-benzylidene)-3-[4,4,4-trifluoro-2-methyl-2-(2,2,2-trifluoro-ethyl)-butyl]-thiazolidine-2,4-dione], the half-inhibitory concentration (IC50) at GLUT1 is 2 µM; on GLUT3 (LNCaP cells overexpressing GLUT3, read-out: IC50 for GLUT3-mediated [3H]2-DG uptake) it was ≥ 5 µM. The inhibition at 5 µM is 73% on GLUT1 and 48% against GLUT3.
